Experiment [1] has as its system Enterobacter cloacae BAA-2341 (KPC). In words: In vitro antibacterial activity, agar dilution MIC. In kind it is cell-based. The following applies: BAA2341; Table 2; BAA-2341 Enterobacter cloacae, KPC; read-out: MIC. From the text: (§1) Experimental strains: all experimental standard bacterial strains for enzyme production were purchased from ATCC, and the clinically separated CRE strain was purchased from Southwest Hospital of the Third Military Medical University.
(§2) Experimental Method: Agar dilution method, referring to M100-S23: Performance Standards for Antimicrobial Susceptibility Testing: Twenty-Third Informational Supplement (Clinical And Laboratory Standards Institute, 2013). Minimal inhibitory concentration (MIC, μg/mL) was calculated.

Experiment [2] concerns Enterobacter hormaechei BAA-2082 (KPC). Description: In vitro antibacterial activity, agar dilution MIC. In kind it is cell-based. The following applies: BAA2082; Table 2; BAA-2082 Enterobacter hormaechei, KPC; read-out: MIC.
From the text: as §1, §2

Experiment [3] has as its system Escherichia coli BAA-2452 (NDM-1). Description: In vitro antibacterial activity, agar dilution MIC. Particulars: BAA2452, Table 2, BAA-2452 Escherichia coli, NDM-1, read-out: MIC. In kind it is cell-based.
From the text: as §1, §2

The test system of experiment [4] is Escherichia coli BAA-2523 (OXA-48). Description: In vitro antibacterial activity, agar dilution MIC. In kind it is cell-based. The following applies: BAA2523, Table 2, BAA-2523 Escherichia coli, OXA-48, read-out: MIC.
From the text: as §1, §2

Experiment [5] concerns Klebsiella oxytoca ATCC-51983 (SHV-5). In words: In vitro antibacterial activity, agar dilution MIC. In kind it is cell-based. The following applies: ATCC51983; Table 2; ATCC-51983 Klebsiella oxytoca, SHV-5; read-out: MIC.
From the text: as §1, §2

Experiment [6] relates to Klebsiella pneumoniae BAA-1900 (KPC). In words: In vitro antibacterial activity, agar dilution MIC. In kind it is cell-based. Particulars: BAA1900, Table 2, BAA-1900 Klebsiella pneumoniae, KPC, read-out: MIC.
From the text: as §1, §2

Experiment [7] concerns Klebsiella pneumoniae BAA-2146 (NDM-1). In words: In vitro antibacterial activity, agar dilution MIC. In kind it is cell-based. Particulars: BAA2146, Table 2, BAA-2146 Klebsiella pneumoniae, NDM-1, read-out: MIC.
From the text: as §1, §2

Experiment [8] deals with Klebsiella pneumoniae BAA-2524 (OXA-48). Description: In vitro antibacterial activity, agar dilution MIC. In kind it is cell-based. The following applies: BAA2524; Table 2; BAA-2524 Klebsiella pneumoniae, OXA-48; read-out: MIC.
From the text: as §1, §2

In experiment [9] the test system is Citrobacter freundii 7520cfr-167 (NDM, OXA-10, ESBLs). In words: In vitro antibacterial activity on clinically separated CRE strain, agar dilution MIC. In kind it is cell-based. Particulars: Table 3, 7520cfr-167 Citrobacter freundii.
From the text: as §1, §2

The test system of experiment [10] is Citrobacter freundii 7521cfr-169 (NDM, ESBLs, AmpC). Described as above. In kind it is cell-based. The following applies: Table 3, 7521cfr-169 Citrobacter freundii.
From the text: as §1, §2

Experiment [11] relates to Enterobacter cloacae 7494ecl-295 (NDM, ESBLs, AmpC). The experiment is described as above. In kind it is cell-based. The following applies: Table 3, 7494ecl-295 Enterobacter cloacae.
From the text: as §1, §2

Experiment [12] relates to Enterobacter cloacae 7495ecl-296 (IMP, ESBLs, AmpC). The description is as above. The following applies: Table 3, 7495ecl-296 Enterobacter cloacae. In kind it is cell-based.
From the text: as §1, §2

The subject of experiment [13] is Enterobacter cloacae 7498ecl-299 (ESBLs, AmpC). The description is as above. In kind it is cell-based. The following applies: Table 3, 7498ecl-299 Enterobacter cloacae.
From the text: as §1, §2

Experiment [14] concerns Enterobacter cloacae 7513ecl-314 (AmpC). The experiment is described as above. In kind it is cell-based. The following applies: Table 3, 7513ecl-314 Enterobacter cloacae.
From the text: as §1, §2

Experiment [15] deals with Escherichia coli 7438eco-639 (NDM, ESBLs). The description is as above. In kind it is cell-based. The following applies: Table 3, 7438eco-639 Escherichia coli.
From the text: as §1, §2

The test system of experiment [16] is Klebsiella pneumoniae 7450kpn-597 (KPC, ESBLs). Described as above. In kind it is cell-based. The following applies: Table 3, 7450kpn-597 Klebsiella pneumoniae.
From the text: as §1, §2

For experiment [17], the system named is Klebsiella pneumoniae 7463kpn-610 (ESBLs). The description is as above. In kind it is cell-based. The following applies: Table 3, 7463kpn-610 Klebsiella pneumoniae.
From the text: as §1, §2

For experiment [18], the system named is Klebsiella pneumoniae 7484kpn-631 (IMP, ESBLs). The description is as above. In kind it is cell-based. Particulars: Table 3, 7484kpn-631 Klebsiella pneumoniae.
From the text: as §1, §2

In the next experiment the target is T1, AmpC (UniProt P05364).
T1 construct: The concentration of purchased β-lactamases mother liquor was 1 mg/mL, and the mother liquor was dissolved in 50% glycerol
In words: β-lactamase inhibition, Nitrocefin hydrolysis. In kind it is biochemical. Particulars: read-out: IC50 AmpC; Experiment 2; enzyme 1.6 nM, Nitrocefin 0.1 mM. On the procedure: (§3) Nitrocefin, a kind of cephalosporin antibiotics, is sensitive to most of β-lactamases, and changes in color after being hydrolyzed. The hydrolysis rate of Nitrocefin was measured by real-time recording corresponding absorbance of reaction system. β-Lactamase inhibitors could inhibit hydrolysis of the enzymes to Nitrocefin, and reduce hydrolysis rate. By measuring reaction rates in the same reaction system under different inhibitor concentrations, the IC50 (half maximal inhibitory concentration) values of inhibitors were calculated.
(§4) Nitrocefin was dissolved in DMSO to form a solution with concentration of 2 mM, which was sub-packaged and stored at −20° C. The concentration of purchased β-lactamases mother liquor was 1 mg/mL, and the mother liquor was dissolved in 50% glycerol. A part of mother liquor was taken and diluted by 1000 times in reaction solution, sub-packaged and stored at ˜20° C.
(§5) The compounds to be tested were dissolved in DMSO to form a mother liquor with concentration of 10 mM. If not used that day, the mother liquor was stored at −20° C. Its test final concentrations were: 100 μM, 25 μM, 6.25 μM, 1.563 μM, 390.6 nM, 97.66 nM, 24.41 nM, 6.10 nM, 1.53 nM, 0.381 nM, 0.095 nM.

The target in another experiment is T2, CTX-M-1 (Escherichia coli, UniProt P28585).
T2 construct: purchased
In words: β-lactamase inhibition, Nitrocefin hydrolysis. In kind it is biochemical. Particulars: Experiment 2; enzyme 0.2 nM, Nitrocefin 0.1 mM. The protocol:
as §3, §4, §5

The target in a further experiment is T3, KPC-2 (Klebsiella pneumoniae, UniProt Q9F663).
T3 construct: purchased
Description: β-lactamase inhibition, Nitrocefin hydrolysis. In kind it is biochemical. The following applies: Experiment 2; enzyme 1.28 nM, Nitrocefin 0.1 mM; read-out: IC50 KPC-2. On the procedure:
as §3, §4, §5

For another experiment, the target named is T4, TEM-1 (Escherichia coli, UniProt P62593).
T4 construct: purchased
Description: β-lactamase inhibition, Nitrocefin hydrolysis. In kind it is biochemical. The following applies: Experiment 2; enzyme 1 nM, Nitrocefin 0.1 mM; read-out: IC50 TEM-1. On the procedure: as §3, §4, §5

Counter-ions that a name gives are not always drawn.

T3 sequence (Q9F663 25-293, looked up, species assumed): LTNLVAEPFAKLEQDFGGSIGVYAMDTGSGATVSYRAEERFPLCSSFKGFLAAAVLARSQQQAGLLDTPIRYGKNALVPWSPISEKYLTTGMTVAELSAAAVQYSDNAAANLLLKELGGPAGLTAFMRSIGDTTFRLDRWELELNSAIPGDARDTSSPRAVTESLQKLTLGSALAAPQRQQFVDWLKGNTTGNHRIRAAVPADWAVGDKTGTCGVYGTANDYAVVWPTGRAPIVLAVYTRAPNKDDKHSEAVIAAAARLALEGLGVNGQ
T4 sequence (P62593 24-286 limits assumed): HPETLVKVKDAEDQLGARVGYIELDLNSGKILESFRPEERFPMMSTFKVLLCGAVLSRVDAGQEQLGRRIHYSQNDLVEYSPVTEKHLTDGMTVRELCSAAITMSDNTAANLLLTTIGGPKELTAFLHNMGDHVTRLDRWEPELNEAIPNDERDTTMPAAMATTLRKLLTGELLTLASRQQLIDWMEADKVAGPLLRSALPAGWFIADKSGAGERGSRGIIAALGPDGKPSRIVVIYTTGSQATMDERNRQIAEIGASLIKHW
T2 sequence (P28585 29-291): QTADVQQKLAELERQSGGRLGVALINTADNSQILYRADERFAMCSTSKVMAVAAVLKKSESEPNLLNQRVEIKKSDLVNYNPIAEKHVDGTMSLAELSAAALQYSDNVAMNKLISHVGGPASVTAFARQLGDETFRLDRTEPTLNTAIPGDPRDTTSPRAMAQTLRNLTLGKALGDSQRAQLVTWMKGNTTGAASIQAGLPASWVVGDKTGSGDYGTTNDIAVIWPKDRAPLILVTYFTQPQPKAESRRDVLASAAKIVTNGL

On to `CN1CC2(CC(NC(=O)[C@@H]3CC[C@@H]4CN3C(=O)N4OS(=O)(=O)O)C2)C1` [Compound 6, sodium (2S,5R)-2-((2-methyl-2-azaspiro[3.3]heptan-6-yl)carbamoyl)-7-oxo-1,6-diazabicyclo[3.2.1]octan-6-yl hydrogen sulfate], for which the MIC in experiment [1] turned out to be 2 µg/mL; in [2] it was 2 µg/mL; in experiment [3] it was 2 µg/mL; in experiment [4] it was 1 µg/mL; in experiment [5], 4 µg/mL; in experiment [6], 2 µg/mL. The MIC in [7] turned out to be 4 µg/mL; in experiment [8], 2 µg/mL; in experiment [9], 2 µg/mL; in [10], 2 µg/mL; in experiment [11], 2 µg/mL; in experiment [12], 2 µg/mL. Besides, the MIC was found to be 2 µg/mL in experiment [13]; 2 µg/mL in experiment [14]; 2 µg/mL in experiment [15]; 2 µg/mL in [16]; 2 µg/mL in experiment [17]; 4 µg/mL in experiment [18]. Also, the IC50 on AmpC was 17.7 nM; against CTX-M-1 it was 40.8 nM; on KPC-2 it was 42.3 nM; on TEM-1, 30.1 nM.

Values taken from US10167283B2, “β-lactamase inhibitors and uses thereof” (priority 2015, dated 2019).
